“Also recorded” adds a separate entry of the source.
Legend:
PC-12 cells = assay: MTT cytotoxicity assay; format: cell-based, rat; conditions: 0.039-100 μmol/L, 48 hours
Procedure: Cell culture and cytotoxicity assay: The test compound of Onjisaponin B was dissolved in DMSO at a final concentration of 100 mmol/L and stored at −20° C. Cytotoxicity was assessed using the 3-(4,5-dimethylthiazol-2-yl) -2,5-diphenyltetrazolium bromide assay as described previously. PC-12, 4000 cells were seeded on 96-well plates per well. After overnight pre-incubation, the cells were exposed to different concentrations of Onjisaponin B (0.039-100 μmol/L) for 2 days. Subsequently, 10 μL of MTT reagents was added to each well and incubated at 37° C. for 4 hours followed by the addition of 100 μL solubilization buffer (10% SDS in 0.01 mol/L HCl) and overnight incubation. Absorbance at 585 nm was determined from each well the next day. For cell viability assay measured by crystal violet staining, PC-12 cells were incubated in 35 mm disc followed by the addition of Onjisaponin B at the indicated concentrations for 24 hours. The cells were then incubated with crystal violet for 10 minutes followed by a ddH2O wash. […] Cell viability was quantified by dissolving the stained cells in 10% acetic acid (200 μL/well). The colorimetric reading of the solute mixture was then determined by spectrophotometer at OD 560 nm The percentage of cell viability was calculated using the following formula: Cell viability (%)=Cells number treated/Cells number DMSO control×100. […]

[1] = test system: PC12 cells expressing GFP-LC3; assay: GFP-LC3 puncta in the presence of specific inhibitors; format: cell-based, rat; conditions: 12 hours
Procedure: Quantification of Onjisaponin B-mediated autophagy in the presence of specific inhibitors. GFP-LC3 puncta formation was quantified as described previously. In brief, PC12 cells expressing GFP-LC3 were treated with Onjisaponin B (Onji, 25 μM) in the presence of AMPK inhibitor (compound C) (CC, 5 μM) or 3-Methyladenine (3-MA, 5 mM) for 12 hours. The cells were then fixed in 4% paraformaldehyde for 20 minutes at room temperature and then rinsed with PBS. Slides were mounted with FluorSave™ mounting media (Calbiochem) and examined by fluorescence microscopy. To quantify for autophagy, the percentage of cells with punctate GFP-LC3 fluorescence was calculated by counting the number of the cells with punctate GFP-LC3 fluorescence in GFP-positive cells. A minimum of 150 cells from 3 randomly selected fields was scored.

[2] = test system: P-AMPK and P-p70S6K in PC12 cells; assay: Western blot of mTOR signaling marker proteins; format: cell-based, rat
Procedure: Detection of mTOR signaling marker proteins. PC12 cells treated with indicated time and concentrations of Onjisaponin B were harvested and lysed in RIPA buffer (Cell Signaling). The cell lysates were then resolved by SDS-PAGE. After electrophoresis, the proteins from SDS-PAGE were transferred to nitrocellulose membrane which was then blocked with 5% non-fat dried milk for 60 minutes. The membrane was then incubated with P-p70S6K, p70S6K, P-AMPK, AMPK primary antibodies (1:1000) in TBST overnight at 4° C. respectively. After that, the membrane was further incubated with HRP-conjugated secondary antibodies for 60 minutes. Finally, protein bands were visualized by using the ECL Western Blotting Detection Reagents (Invitrogen).

[3] = test system: LC3-II conversion in PC12 cells; assay: Western blot of autophagic marker protein LC3 conversion; format: cell-based
Procedure: Detection of autophagic marker protein LC3 conversion. After drug treatments with or without autophagy inhibitor ([…] E64D and pepstain A), cells were harvested and lysed in RIPA buffer (Cell Signaling Technologies Inc., Beverly, Mass.). The cell lysates were then resolved by SDS-PAGE. After electrophoresis, the proteins from SDS-PAGE were transferred to nitrocellulose membrane which was then blocked with 5% non-fat dried milk for 60 minutes. The membrane was then incubated with LC3 primary antibodies (1:1000) in TBST overnight at 4° C. After that, the membrane was further incubated with HRP-conjugated secondary antibodies for 60 minutes. Finally, protein bands were visualized by using the ECL Western Blotting Detection Reagents (Invitrogen, Paisley, Scotland, UK).

[4] = test system: EGFP-HDQ74 transfected Atg7 wild-type mouse embryonic fibroblasts; assay: Mutant huntingtin aggregates and LC3 conversion in Atg7 wild-type MEFs; format: cell-based
Procedure: Quantification of mutant huntingtin aggregates in PC12, Atg7 wild type and deficient MEFs. In brief, both EGFP-HDQ74 transfected PC12, Atg7 wild-type and deficient mouse embryonic fibroblasts (MEFs) grown on coverslips in a 6-well plate were treated with indicated concentrations of Onjisaponin B. The cells were then fixed in 4% paraformaldehyde for 20 minutes at room temperature and then rinsed with PBS. Slides were mounted with FluorSave™ mounting media (Calbiochem, San Diego, Calif.) and examined by fluorescence microscopy. The number of cells with GFP-aggregates formation was examined under the Nikon ECLIPSE 80i microscope. Representative images were captured with CCD digital camera Spot RT3™ (Diagnostic Instruments, Inc., Melville, N.Y.). To quantify the clearance of mutant huntingtin, the percentage of cells with GFP-aggregates was calculated by counting the number of the cells with punctate GFP-LC3 fluorescence in GFP-positive cells. A minimum of 150 cells from 3 randomly selected fields was scored.
Detection of autophagic marker protein LC3 conversion and HTT 74 mutant aggregates. After drug treatments for Atg7 wild type and deficient MEFs, cells were harvested and lysed in RIPA buffer (Cell Signaling Technologies Inc., Beverly, Mass.). The cell lysates were then resolved by SDS-PAGE. […]

[5] = test system: Doxycycline-inducible PC-12 cell lines transfected with mutant A53T α-synuclein; assay: Cell death by flow cytometry (Annexin V / propidium iodide) in PC-12 cells expressing mutant A53T α-synuclein; format: cell-based, rat; conditions: 50 μM, 24 h after doxycycline removal
Procedure: Flow cytometry analysis: Doxycycline-inducible PC-12 cell lines transfected with mutant A53T α-synuclein were induced with doxycycline (1 μg/mL) for 24 h and the expression of transgene was then switched off by the removal of doxycycline. Cells were then treated with Onjisaponin B (50 μM) for a further 24 h after doxycycline removal. The control group (Ctrl) contained cells without the addition of doxycycline, while the Dox group contained cells with the removal of doxycycline (1 μg/mL) after 24 h of induction but without treatment of Onjisaponin B. Cell death was then assessed by flow cytometry using Annexin V staining kit and Propidium iodide staining. Data from the bar chart represented the means±S.D. of three independent experiments. **p<0.01; *p<0.05. Flow cytometry was carried out using a FACSCalibur flow cytometer. Data acquisition and analysis were performed with CellQuest.

For `COc1ccc(/C=C/C(=O)O[C@@H]2[C@H](O[C@@H]3O[C@@H](C)[C@H](O)[C@@H](O)[C@H]3O)[C@@H](O[C@@H]3O[C@@H](C)[C@H](O[C@@H]4OC[C@@H](O[C@@H]5O[C@H](CO)[C@H](O)[C@H](O)[C@H]5O)[C@H](O)[C@H]4O)[C@@H](O)[C@H]3O)[C@H](OC(=O)[C@]34CCC(C)(C)C[C@H]3C3=CC[C@@H]5[C@@]6(C)C[C@H](O)[C@H](O[C@@H]7O[C@H](CO)[C@@H](O)[C@H](O)[C@H]7O)[C@@](C)(C(=O)O)[C@@H]6CC[C@@]5(C)[C@]3(CO)CC4)O[C@@H]2C)cc1` [Onjisaponin B], the “Cytotoxicity in PC-12 cells (MTT assay)” value (PC-12 cells) was “no significant cytotoxic effect; also recorded: no toxicity observed overtly”, the “Onjisaponin B-induced GFP-LC3 puncta formation in the presence of 3-Methyladenine” value ([1]; Onjisaponin B 25 μM + 3-MA 5 mM) was “significant reduction” and the “Onjisaponin B-induced GFP-LC3 puncta formation in the presence of AMPK inhibitor (compound C)” value ([1]; Onjisaponin B 25 μM + compound C 5 μM) was “significant reduction”. The “Phosphorylation of AMPK” value ([2]; 25 μM at 8, 16, 24 hour, 3, 6.25, 12.5, 25 μM at 24 hour) was “activate the phosphorylation of AMPK in a time dependent manner”, the p70S6K phosphorylation ([2]; same treatments as AMPK blot) was “concomitant reduction in its downstream p70S6K phosphorylation” and the “LC3-II conversion (western blot)” value [3] was “increase of LC3-II conversion”. For the same molecule, the “Rate of LC3-II formation in the presence of protease inhibitors (autophagic flux)” value ([3]; with 10 µg/mL E64D and pepstain A) was “increased the rate of LC3-II formation”, the “Clearance of EGFP-HDQ74 inclusions in autophagy-wild type cells” value [4] was “enhanced the clearance of EGFP-HDQ74 inclusions” and the “LC3II formation in wild type Atg7 cells transfected with EGFP-HDQ74” value ([4]; western blot) was “LC3II formation in wild type Atg7 cells”. The “Toxicity in PC-12 cells expressing mutant A53T α-synuclein (cell death, flow cytometry)” value [5] was “reduced toxicity”.

Source: patent publication US9005677B2, “Autophagy enhancer for treatment of neurodegenerative diseases” (Macau University of Science and Technology, priority 2013, dated 2015)
